Results published in patent US20140018384A1, “QUINOLINONE DERIVATIVES FOR USE IN THE TREATMENT OF AN AUTOIMMUNE DISEASE AND/OR AN INFLAMMATORY DISEASE” (PRONOXIS AB, priority 2011, published 2014).
Like-named read-outs stand apart in the source and are kept apart here.

Assays:
[1] = tested on: PLB-985 cells; assay: ROS production (isoluminol/HRP luminescence) in PLB-985 cells, Biological Example 1; format: cell-based; conditions: 25 μM compound vs. DMSO
Outline: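 Cells in HBSS received compound plus isoluminol and HRP; luminescence followed 10–30 min, AUC divided by control to give fold change in NADPH oxidase activity. HL-60: 50 μM compound vs blank; PLB-985: 25 μM compound vs blank or vs DMSO.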

[2] = tested on: arthritogenic T cells; assay: Adoptive transfer of ex vivo treated arthritogenic T cells (splenocytes) to naive recipient DA rats; format: in vivo, rat; conditions: for T cells capacity to transfer arthritis to naive recipients: 12.5 μM substance, 44 hours ex vivo with ConA, cells injected i.p. into DA rats, FIGS. 2C and D
Procedure: Arthritogenic cells were treated with H2O2 (176-1.76 μM) for 20 min and A) granulocytes and B) T cells (see FIGS. 1A and 1B) were investigated for intracellular ROS using a DHR-123 based flow cytometric assay. […] Arthritogenic cells were cultured in presence of Con A and w/wo H2O2 (176-1.76 μM) for 44 hours and then transferred to naïve recipient rats (n=7-9).
(§1) FIG. 2: ROS production and effect on T cell arthritogeniciy of ROS inducing substances. A-B). Thioglycolate recruited rat granulocytes (in accordance with the procedure in Biological Example 3) were treated with 25 μM substance and measurement of ROS production was initiated immediately using an isoluminol based chemiluminescence assay (FIGS. 2A and 2B). […] C-D) Arthritogenic rat splenocytes were treated with 12.5 μM substance during 44 hours ex vivo incubation in presence of ConA (FIGS. 2C and 2D). Following incubation, cells were washed and injected i.p. into naive recipient rats (n=8-11). Disease severity in recipient rats was followed by investigation of macroscopic swelling and redness of the rat joints. Treatment with substance during ex vivo stimulation prevented transfer of arthritogenic T cells.
In order to investigate the effect of ROS on T cell arthritogenicity, spleens were collected from arthritis susceptible DA rats injected with the arthritis inducing oil pristane (0.5 ml per rat s.c.) day −13. Single cell suspensions were prepared from the spleens and red blood cells were lysed. After wash, cells were resuspended in cell culture medium containing concanavalin A (ConA) to a final concentration of 4.5×10̂6 cells/ml. […] The cells were incubated for 44 hours at 37° C. After incubation the cells were washed and resuspended in PBS to a final concentration of 60*10̂6 cells/ml. Cells were injected i.p. (1 ml/rat) into naïve recipient DA rats and disease was followed by macroscopic evaluation of disease.
In order to investigate the effect of ROS inducing substances on T cell arthritogenicity, spleens were collected from arthritis susceptible DA rats injected with the arthritis inducing oil pristane (0.5 ml per rat s.c.) day −13. Single cell suspensions were prepared from the spleens and red blood cells were lysed.
After wash, cells were resuspended in cell culture medium containing concanavalin A (ConA) to a final concentration of 4.5×10̂6 cells/ml. Substance A or B was added to the cells to a final concentration of 12.5 μM. The cells were incubated for 44 hours at 37° C. Control cells were incubated in presence of vehicle control (DMSO). After incubation the cells were washed and resuspended in PBS to a final concentration of C) 30*10̂6 and D) 60*10̂6 cells/ml. Cells were injected i.p. (1 ml/rat) into naïve recipient DA rats and disease was followed by macroscopic evaluation of disease (n=8-11).

[3] = tested on: Rat granulocytes; assay: ROS production in thioglycollate-recruited rat granulocytes, isoluminol chemiluminescence assay; format: cell-based; conditions: 25 μM compound, compared to DMSO control cells; FIGS. 2A and B
Procedure: as §1
Rat granulocytes were recruited to the peritoneum by an i.p. injection of 2.4% thioglycollate medium (autoclaved). The peritoneal cavity was washed after 24 hours with ice cold HBSS. Collected cells were, after lysis of red blood cells, washed and resupended in HBSS. In a total volume of 100 μl, compound (25 μM), isoluminol (0.175 mg/ml) and horseradish peroxidase (fraction II) (1.75 U/ml) was added to the cells (0.1*10̂6/well) and resulting ROS production detected as a luminescence signal (fluorescent unit, FU) over time. […] All samples were analysed at least in duplicates.

[4] = tested on: granulocytes and T cells; conditions: H2O2 176-1.76 μM for 20 min
Procedure: In order to measure the effect of exogenous ROS on intracellular ROS content, single cell suspensions were prepared from rat spleens. After lysis of red blood cells (0.84% ammonium chloride) the cells were stained with antibody His-48-bio (anti-granulocyte) or R73-bio (anti-T cell receptor) followed by staining with streptavidine-APC. Cells were then resuspended in DMEM containing DHR-123 and incubated for 10 minutes at 37° C. […] After 20 minutes incubation, cells were washed, resuspended in PBS and acquired in a FACScalibur. […] Samples were analysed in triplicates.

[5] = setup C, read-out: Activity C (fold increase of NADPH activity compared to control)

| SMILES | fold induction at 25 µM [1, 5] | fold induction at 25 µM ([1]; setup D, read-out: Activity D (fold increase of NADPH activity compared to control)) | fold induction at 25 µM ([1]; setup E, read-out: Activity E (fold increase of NADPH activity compared to control)) | T cells capacity to transfer arthritis to naive recipients [2] | cellular ROS production (luminescence signal over time) [3] | mean arthritis severity in recipient rats ([2]; cells cultured 44 hours with Con A at lower concentrations of H2O2 (below 88 μM)) | mean arthritis severity in recipient rats ([2]; cells cultured 44 hours with Con A in presence of 176 μM and 88 μM H2O2) | intracellular ROS [4] |
| --- | --- | --- | --- | --- | --- | --- | --- | --- |
| O=C(Cn1cc(C(=O)c2ccc3ccccc3c2)c(=O)c2cc3c(cc21)OCO3)Nc1ccc(Cl)cc1 [Example 1, N-(4-Chlorophenyl)-2-[6,7-methylenedioxy-3-(2-naphthoyl)-4-oxo-1-quinolinyl]-acetamide] | 45.3 | 27.4 | 8.5 | significantly alters the T cells capacity to transfer arthritis to naïve recipients | clear induction of cellular ROS production |  |  |  |
| COc1ccc(NC(=O)Cn2cc(C(=O)c3ccccc3)c(=O)c3cc4c(cc32)OCO4)c(OC)c1 [Example 84, 2-(3-Benzoyl-6,7-methylenedioxy-4-oxo-1-quinolinyl)-N-(2,4-dimethoxyphenyl)acetamide] | 8.4 |  |  | significantly alters the T cells capacity to transfer arthritis to naïve recipients | clear induction of cellular ROS production |  |  |  |
| OO [Example H2O2, Hydrogen peroxide, reference compound] |  |  |  |  |  | the effect is lost | significant reduction | Intracellular ROS reflected amount of H2O2 added |
